Tests used:
Format in all cases: cell-based
SMARCA2 [1] = target: T1, SMARCA2 (Homo sapiens, UniProt P51531); test: MSD SMARCA2 degradation in A549 cell line; conditions: for DC50 / SMARCA2 MSD A549 degradation 24 h: Average Dmax %: A549 cells; for DC50 / Dmax: 24 h; for DC50: read-out: SMARCA2 MSD A549 degradation 24 h: Average external-Abs DC50; for Dmax: A549, A549 cells
In short: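 SMARCA2 protein remaining after 24 h exposure of A549 cells (top concentration 1000 nM, 3-fold dilutions) was measured by MSD electrochemiluminescence immunoassay of cell lysates. Results are given as binned DC50 and maximal degradation (Dmax) codes.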

SMARCA4 = target: T2, SMARCA4 (Homo sapiens, UniProt P51532); test: SMARCA4 Western blot degradation in MV4-11 cells; conditions: for DC50 / SMARCA4 MSD MV411 degradation 24 h: average Dmax %: MV4-11 cells; for DC50 / Dmax: 24 h; for DC50: read-out: SMARCA4 MSD MV411 degradation 24 h: Mean external-Abs DC50; for Dmax: MV4-11, MV4-11 cells, read-out: SMARCA4 MSD MV411 degradation 24 h: average Dmax %
T2 construct: SMARCA2/SMARCA4 protein degradation selectivity in MV4-11 cells; endogenous in cells; host or cells: MV4-11
T2 sequence (P51532 whole entry): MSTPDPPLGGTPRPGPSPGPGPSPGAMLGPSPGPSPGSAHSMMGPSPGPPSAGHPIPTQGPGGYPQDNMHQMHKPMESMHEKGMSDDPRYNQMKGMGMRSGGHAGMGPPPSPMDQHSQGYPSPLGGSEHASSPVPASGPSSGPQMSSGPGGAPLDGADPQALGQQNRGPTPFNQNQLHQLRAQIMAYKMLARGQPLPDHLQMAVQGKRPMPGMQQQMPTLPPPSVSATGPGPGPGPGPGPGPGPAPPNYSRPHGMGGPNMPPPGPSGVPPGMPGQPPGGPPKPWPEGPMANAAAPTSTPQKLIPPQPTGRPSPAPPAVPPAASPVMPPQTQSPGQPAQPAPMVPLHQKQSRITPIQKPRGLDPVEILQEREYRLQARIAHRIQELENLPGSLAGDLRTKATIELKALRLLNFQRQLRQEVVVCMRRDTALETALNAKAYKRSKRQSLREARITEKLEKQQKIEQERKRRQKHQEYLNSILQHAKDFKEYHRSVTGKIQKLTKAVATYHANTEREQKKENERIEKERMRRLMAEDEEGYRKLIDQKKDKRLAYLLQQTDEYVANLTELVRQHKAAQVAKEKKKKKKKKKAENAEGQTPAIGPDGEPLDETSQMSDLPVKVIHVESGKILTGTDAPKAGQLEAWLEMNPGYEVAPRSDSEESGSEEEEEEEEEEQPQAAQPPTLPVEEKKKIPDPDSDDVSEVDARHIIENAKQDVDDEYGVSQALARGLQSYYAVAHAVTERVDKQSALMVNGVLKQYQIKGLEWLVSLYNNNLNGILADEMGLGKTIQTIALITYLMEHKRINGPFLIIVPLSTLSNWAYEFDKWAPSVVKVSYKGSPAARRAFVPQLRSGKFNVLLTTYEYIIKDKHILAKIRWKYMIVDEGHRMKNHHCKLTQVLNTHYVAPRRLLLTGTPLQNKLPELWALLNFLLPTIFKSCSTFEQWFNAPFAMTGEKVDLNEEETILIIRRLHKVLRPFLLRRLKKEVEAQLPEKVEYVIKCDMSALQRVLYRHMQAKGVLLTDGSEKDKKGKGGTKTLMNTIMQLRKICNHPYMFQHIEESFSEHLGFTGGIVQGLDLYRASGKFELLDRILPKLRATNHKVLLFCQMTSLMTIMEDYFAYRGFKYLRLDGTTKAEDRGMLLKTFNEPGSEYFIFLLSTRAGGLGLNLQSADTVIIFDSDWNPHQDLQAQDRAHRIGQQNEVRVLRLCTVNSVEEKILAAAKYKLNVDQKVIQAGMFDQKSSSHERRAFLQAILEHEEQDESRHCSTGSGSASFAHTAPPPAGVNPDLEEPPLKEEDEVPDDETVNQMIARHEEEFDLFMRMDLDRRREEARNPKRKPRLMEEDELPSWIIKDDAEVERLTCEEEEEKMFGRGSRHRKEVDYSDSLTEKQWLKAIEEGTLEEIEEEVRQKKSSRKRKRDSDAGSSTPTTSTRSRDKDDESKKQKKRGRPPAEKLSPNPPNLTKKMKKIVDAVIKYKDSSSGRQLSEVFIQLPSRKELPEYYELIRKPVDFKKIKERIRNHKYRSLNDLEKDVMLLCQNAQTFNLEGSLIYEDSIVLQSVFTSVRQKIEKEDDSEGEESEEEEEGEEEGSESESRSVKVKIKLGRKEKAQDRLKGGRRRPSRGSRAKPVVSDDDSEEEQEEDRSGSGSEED
In short: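 Protein levels quantified by LI-COR Western blot (beta-actin loading control) in RIPA lysates of MV4-11 cells after 24 h compound exposure. Degradation reported as DC50, Dmax % at 24 h and SMARCA2 vs SMARCA4 selectivity, each binned into letter codes.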

SMARCA2 [2] = target: T1, SMARCA2; test: SMARCA2 Western blot degradation in MV4-11 cells; parameters: SMARCA2/SMARCA4 protein degradation selectivity in MV4-11 cells; endogenous in cells; host or cells: MV4-11; conditions: for DC50 / Selectivity in MV411 / SMARCA2 MSD MV411 degradation 24 h: average Dmax %: MV4-11 cells; for DC50 / SMARCA2 MSD MV411 degradation 24 h: average Dmax % / Dmax: 24 h; for DC50: read-out: SMARCA2 MSD MV411 degradation 24 h: Mean external-Abs DC50; for Selectivity in MV411: SMARCA2/4 selectivity; for Dmax: MV4-11, MV4-11 cells, read-out: SMARCA2 MSD MV411 degradation 24 h: average Dmax %

T1 sequence (P51531 whole entry): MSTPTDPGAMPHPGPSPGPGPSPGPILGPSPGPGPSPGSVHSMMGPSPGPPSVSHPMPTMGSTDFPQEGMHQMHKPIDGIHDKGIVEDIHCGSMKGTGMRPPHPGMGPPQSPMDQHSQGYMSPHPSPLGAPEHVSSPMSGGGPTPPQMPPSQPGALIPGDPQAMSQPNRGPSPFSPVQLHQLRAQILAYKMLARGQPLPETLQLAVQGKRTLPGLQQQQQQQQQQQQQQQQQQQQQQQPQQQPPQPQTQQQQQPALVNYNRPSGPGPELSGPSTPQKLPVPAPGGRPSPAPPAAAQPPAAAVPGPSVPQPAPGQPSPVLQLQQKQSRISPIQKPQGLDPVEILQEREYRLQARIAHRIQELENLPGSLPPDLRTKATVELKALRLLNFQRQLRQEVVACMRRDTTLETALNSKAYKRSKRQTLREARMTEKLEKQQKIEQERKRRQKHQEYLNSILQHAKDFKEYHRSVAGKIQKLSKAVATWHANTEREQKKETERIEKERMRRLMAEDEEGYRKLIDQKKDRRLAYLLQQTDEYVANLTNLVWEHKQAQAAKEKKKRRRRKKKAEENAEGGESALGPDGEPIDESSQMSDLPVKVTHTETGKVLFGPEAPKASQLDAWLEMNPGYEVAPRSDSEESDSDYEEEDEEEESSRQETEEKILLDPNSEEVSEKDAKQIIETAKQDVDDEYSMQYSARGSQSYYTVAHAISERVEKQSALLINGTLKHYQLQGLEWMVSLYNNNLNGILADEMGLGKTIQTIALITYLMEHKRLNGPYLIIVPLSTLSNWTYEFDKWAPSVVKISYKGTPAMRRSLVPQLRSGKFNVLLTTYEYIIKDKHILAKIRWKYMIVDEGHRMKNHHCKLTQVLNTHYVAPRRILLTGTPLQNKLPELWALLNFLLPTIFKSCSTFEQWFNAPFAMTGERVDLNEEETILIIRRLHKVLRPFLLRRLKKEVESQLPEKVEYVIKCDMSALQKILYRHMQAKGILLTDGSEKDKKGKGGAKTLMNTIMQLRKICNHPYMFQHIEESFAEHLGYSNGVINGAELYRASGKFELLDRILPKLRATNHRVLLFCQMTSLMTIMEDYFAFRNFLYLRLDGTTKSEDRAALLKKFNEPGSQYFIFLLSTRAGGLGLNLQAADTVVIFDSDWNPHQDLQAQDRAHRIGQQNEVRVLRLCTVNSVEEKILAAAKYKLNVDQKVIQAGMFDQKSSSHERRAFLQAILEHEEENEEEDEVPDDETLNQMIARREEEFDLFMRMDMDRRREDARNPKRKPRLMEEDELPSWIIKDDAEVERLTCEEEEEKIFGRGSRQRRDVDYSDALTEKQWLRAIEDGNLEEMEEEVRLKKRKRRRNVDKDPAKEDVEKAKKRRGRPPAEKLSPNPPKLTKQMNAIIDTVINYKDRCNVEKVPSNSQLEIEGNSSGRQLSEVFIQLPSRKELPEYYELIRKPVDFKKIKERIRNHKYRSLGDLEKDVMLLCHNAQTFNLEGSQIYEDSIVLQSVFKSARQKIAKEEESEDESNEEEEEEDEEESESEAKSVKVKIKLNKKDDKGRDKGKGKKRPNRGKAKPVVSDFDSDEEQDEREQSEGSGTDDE

Compound	DC50 (SMARCA2 [1]) [nM]	DC50 (SMARCA4) [nM]	DC50 (SMARCA2 [2]) [nM]	Selectivity in MV411 (SMARCA2 [2])	SMARCA2 MSD A549 degradation 24 h: Average Dmax % (SMARCA2 [1])	SMARCA4 MSD MV411 degradation 24 h: average Dmax % (SMARCA4)	SMARCA2 MSD MV411 degradation 24 h: average Dmax % (SMARCA2 [2])	Dmax (SMARCA2 [1]) [%]	Dmax (SMARCA4) [%]	Dmax (SMARCA2 [2]) [%]
C#Cc1ccc(CNC(=O)[C@@H]2C[C@@H](O)CN2C(=O)[C@@H](NC(=O)[C@H]2CC3(C2)C[C@H](N2CCN(C(=O)CN4CCN5c6cc(-c7ccccc7O)nnc6NC[C@H]5C4)CC2)C3)C(C)(C)C)cc1 (some centres unmarked) [I-240]	> 100	10 to 100	1 to 10	D (D (<10 fold))						
C#Cc1ccc(CNC(=O)[C@@H]2C[C@@H](O)CN2C(=O)[C@@H](NC(=O)[C@H]2CCC3(CC2)C[C@H](N2CCC(N4CC5(CC(N6CCN7c8cc(-c9ccccc9O)nnc8NC[C@H]7C6)C5)C4)CC2)C3)C(C)(C)C)cc1 (single isomer, unassigned) [I-237]	50 to 100	> 100	1 to 10	B (B (>100-500 fold))	A (A (>90% degradation))	D (D (<50% degradation))	B (B (>70-90% degradation))			
C#Cc1ccc(CNC(=O)[C@@H]2C[C@@H](O)CN2C(=O)[C@@H](NC(=O)N2CC3(CC(N4CCC(c5cnc(N6CCc7[nH]c8nnc(-c9ccccc9O)cc8c7[C@H]6C)nc5)CC4)C3)C2)C(C)(C)CCO)c(Cl)c1 (single isomer, unassigned) [I-317]	10 to 50	> 100	1 to 10	C (C (10-100 fold))				> 90	70 to 90	70 to 90
C#Cc1ccc(CNC(=O)[C@@H]2C[C@@H](O)CN2C(=O)[C@@H](NC(=O)[C@H]2CCC3(CC2)C[C@H](N2CCN(c4cnc(N5CCN6c7cc(-c8ccccc8O)nnc7NC[C@H]6C5)nc4)CC2)C3)C(C)(C)C)cc1 (single isomer, unassigned) [I-170]	10 to 50	> 100	1 to 10	C (C (10-100 fold))	A (A (>90% degradation))	C (C (50-70% degradation))	B (B (>70-90% degradation))			
C#Cc1ccc(CNC(=O)[C@@H]2C[C@@H](O)CN2C(=O)[C@@H](NC(=O)[C@H]2CC3(C2)C[C@H](N2CCC(N4CCC(N5CCN6c7cc(-c8ccccc8O)nnc7NC[C@H]6C5)CC4)CC2)C3)C(C)(C)CCO)cc1 (single isomer, unassigned) [I-365]	> 100	> 100	1 to 10	A (A (>500 fold))	A (A (>90% degradation))	D (D (<50% degradation))	B (B (>70-90% degradation))			
C#Cc1cc(Cl)c(CNC(=O)[C@@H]2C[C@@H](O)CN2C(=O)[C@@H](NC(=O)[C@H]2CC3(C2)C[C@H](N2CCC(N4CCC(N5CCN6c7cc(-c8ccccc8O)nnc7NC[C@H]6C5)CC4)CC2)C3)C(C)(C)C)c(OC)c1 (single isomer, unassigned) [I-328]	> 100	> 100	> 100	D (D (<10 fold))				< 50	< 50	< 50
C#Cc1ccc(CNC(=O)[C@@H]2C[C@@H](O)CN2C(=O)[C@@H](NC(=O)[C@H]2CCC3(CC2)C[C@H](N2CCN(c4cnc(N5CCN6c7cc(-c8ccccc8O)nnc7NC[C@H]6C5)nc4)CC2)C3)C(C)(C)CCO)c(Cl)c1 (single isomer, unassigned) [I-311]	10 to 50	> 100	1 to 10	C (C (10-100 fold))				> 90	70 to 90	70 to 90
Cc1ncsc1-c1ccc(CNC(=O)[C@@H]2C[C@@H](O)CN2C(=O)C(c2cc(N3CC4(CCC(N5CCC(c6cnc(N7CCc8[nH]c9nnc(-c%10ccccc%10O)cc9c8[C@@H]7C)nc6)CC5)CC4)C3)no2)C(C)C)cc1 (single isomer, unassigned) [I-9]	10 to 50	10 to 100	1 to 10	C (C (10-100 fold))				70 to 90	70 to 90	> 90
C#Cc1ccc(CNC(=O)[C@@H]2C[C@@H](O)CN2C(=O)[C@@H](NC(=O)C2CCC3(CC2)CC(N2CCC(c4ccc(N5CCN6c7cc(-c8ccccc8O)nnc7NC[C@H]6C5)cc4)CC2)C3)C(C)(C)C)cc1 (some centres unmarked) [I-95]	> 100	> 100	> 100	C (C (10-100 fold))				< 50	< 50	< 50
C#Cc1ccc(CNC(=O)[C@@H]2C[C@@H](O)CN2C(=O)[C@@H](NC(=O)[C@H]2CCC3(CC2)C[C@H](N2CCC(c4cnc(N5CCN6c7cc(-c8ccccc8O)nnc7NC[C@H]6C5)nc4)CC2)C3)C(C)(C)C)c(OCCCOC)c1 (single isomer, unassigned) [I-130]	< 10	10 to 100	1 to 10	D (D (<10 fold))				> 90	> 90	> 90
C#Cc1cc(Cl)c(CNC(=O)[C@@H]2C[C@@H](O)CN2C(=O)[C@@H](NC(=O)[C@H]2CC3(C2)C[C@H](N2CCC(N4CCC(N5CCN6c7cc(-c8ccccc8O)nnc7NC[C@H]6C5)CC4)CC2)C3)C(C)(C)C)c(OC)c1 (some centres unmarked) [I-329]	> 100	> 100		D (D (<10 fold))						

Other lines, results leading:

DC50 (SMARCA2 [1]) [nM]	DC50 (SMARCA4) [nM]	DC50 (SMARCA2 [2]) [nM]	Selectivity in MV411 (SMARCA2 [2])	SMARCA2 MSD A549 degradation 24 h: Average Dmax % (SMARCA2 [1])	SMARCA4 MSD MV411 degradation 24 h: average Dmax % (SMARCA4)	SMARCA2 MSD MV411 degradation 24 h: average Dmax % (SMARCA2 [2])	Dmax (SMARCA2 [1]) [%]	Dmax (SMARCA4) [%]	Dmax (SMARCA2 [2]) [%]	Compound
> 100	> 100	> 100	C (C (10-100 fold))				70 to 90	< 50	< 50	C#Cc1ccc(CNC(=O)[C@@H]2C[C@@H](O)CN2C(=O)[C@@H](NC(=O)C2CCN(CC3CCC(N4CCC(N5CCc6[nH]c7nnc(-c8ccccc8O)cc7c6[C@H]5C)CC4)CC3)CC2)C(C)(C)C)cc1 (some centres unmarked) [I-197]
> 100	> 100	> 100	C (C (10-100 fold))				> 90	< 50	< 50	C#Cc1ccc(CNC(=O)[C@@H]2C[C@@H](O)CN2C(=O)[C@@H](NC(=O)N2CC3(CC(N4CC5(CC(N6CCC(N7CCc8[nH]c9nnc(-c%10ccccc%10O)cc9c8[C@H]7C)CC6)C5)C4)C3)C2)C(C)(C)C)cc1 [I-205]
> 100	> 100	1 to 10	C (C (10-100 fold))				> 90	50 to 70	70 to 90	C#Cc1ccc(CNC(=O)[C@@H]2C[C@@H](O)CN2C(=O)[C@@H](NC(=O)C2CCN(C[C@H]3CC[C@@H](N4CCc5[nH]c6nnc(-c7ccccc7O)cc6c5[C@H]4C)CC3)CC2)C(C)(C)C)cc1 (single isomer, unassigned) [I-201]
> 100	> 100	> 100	D (D (<10 fold))				< 50	< 50	< 50	C#Cc1ccc(CNC(=O)[C@@H]2C[C@@H](O)CN2C(=O)[C@@H](NC(=O)N2CCC[C@@H](CN3CCC(N4CCC(N5CCN6c7cc(-c8ccccc8O)nnc7NC[C@H]6C5)CC4)CC3)C2)C(C)(C)C)cc1 (single isomer, unassigned) [I-253]
> 100	> 100	10 to 100	C (C (10-100 fold))				> 90	< 50	50 to 70	C#Cc1ccc(CNC(=O)[C@@H]2C[C@@H](O)CN2C(=O)[C@@H](NC(=O)N2CC3(CC(N4CCC(N5CCC(N6CCc7[nH]c8nnc(-c9ccccc9O)cc8c7[C@H]6C)C5)CC4)C3)C2)C(C)(C)C)cc1 (mixture of isomers) [I-188]
> 100	> 100	> 100	C (C (10-100 fold))				70 to 90	< 50	< 50	C#Cc1ccc(CNC(=O)[C@@H]2C[C@@H](O)CN2C(=O)[C@@H](NC(=O)N2CCC(C(=O)N3CCC(N4CCC(N5CCc6[nH]c7nnc(-c8ccccc8O)cc7c6[C@H]5C)CC4)CC3)CC2)C(C)(C)C)cc1 [I-192]
50 to 100	> 100	1 to 10	B (B (>100-500 fold))	A (A (>90% degradation))	D (D (<50% degradation))	B (B (>70-90% degradation))				C#Cc1ccc(CNC(=O)[C@@H]2C[C@@H](O)CN2C(=O)[C@@H](NC(=O)[C@H]2CCC3(CC2)C[C@H](N2CCC(N4CCC(N5CCN6c7cc(-c8ccccc8O)nnc7NC[C@H]6C5)CC4)CC2)C3)C(C)(C)C)cc1 (single isomer, unassigned) [I-175]

From patent US20250170248A1, “SMARCA DEGRADERS AND USES THEREOF” (Kymera Therapeutics, Inc., priority 2021, published 2025)
